Experiment [1] relates to Aspergillus fumigatus strain IP 864.64. The experiment can be described thus: In vitro antifungal growth inhibition on microtitre plates (optical density 590 nm), compounds alone or as mixtures (Wadley method). It is filed as cell-based. To be noted: second study. As for the experimental part:
(§1) The following fungi were used for this study: Candida albicans strains IP 48.72 (ATCC 10231) and Aspergillus fumigatus strain IP 864.64 obtained from the Collection Nationale de Cultures de Microorganismes (CNCM) of the Institut Pasteur. The strains are cultured on Yeast Extract-Peptone-Dextrose (YEPD) agar medium comprising 0.5% yeast extract, 0.5% bactopeptone, 2% glucose and 2% agar at 30° C. and in the dark.
(§2) All these compounds were prepared in a DMSO solution at a final concentration of 100 mg/ml. The stock solutions are stored at −20° C. up to the time of use.
(§3) The trials are carried out in RPMI 1640 medium with no sodium bicarbonate, but with L-glutamine buffered with 0.165 mol per litre of 3-[N-morpholino]propanesulphonic acid (MOPS), enriched (<>) or otherwise (<>) with 2% glucose. The pH of this medium is adjusted to 7.0. The medium is sterilized by filtration (0.22 μm) and stored at 4° C. up to the time of use.
(§4) All the antifungal tests are carried out on microtitre plates. The initial suspensions of spores are prepared in a sterile solution containing 0.85% NaCl, supplemented with Tween 80 at 0.01%. These initial suspensions are then diluted in the culture medium (RPMI 1640 enriched or otherwise with 2% glucose) to a final concentration of 10^4 spores per ml. The measurements of viability of each inoculum are verified by subcultures of a volume of 300 μl on YEPD agar medium.
(§5) The antifungal compounds are tested in a range of concentrations ranging from 0.026 to 100 μg of active ingredient/ml. These antifungal compounds are then diluted in RPMI 1640 medium enriched or otherwise with 2% glucose. A final DMSO concentration of 0.2% is used throughout the measurements. Each trial is carried out on a series of dilutions of antifungal compounds, in duplicate. The antifungal dilutions (0.1 ml) and the fungal inoculum (0.1 ml) are added to each of the wells of the microtitre plate. The plates are then read with a spectrophotometer (ELX 800UV Bio-Tek Instruments, Inc) at a wavelength of 590 nm. The plates are read immediately after (t=0) and after 48 hours' incubation at 30° C. and in the dark. The optical density values obtained are correlated with fungal growth between the times t=0 and t=48 hours. The optical density values are used to calculate the percentage inhibition of growth for each concentration of antifungals by comparison with the control. The values are then used to plot a dose-response curve and the EC50 value is determined for each fungus and each compound with the aid of the Grafit 5.0® software (Erithacus software Ltd).
(§6) The method which was used to measure the type of interaction existing between the antifungal compounds in the form of mixtures is the Wadley method.
(§7) In the Wadley approach, the dose-response curve for each of the compounds A and B, and for the mixture AB, is constructed. The EC50 is calculated for each compound taken individually and for the mixture. If a and b are the absolute quantities of the compounds A and B in the mixture (a=1, b=1, a+b=2 under our conditions), the expected effective concentration (EC50exp) may be calculated in the following manner: EC50exp=(a+b)/[a/EC50A)+b/(EC50B)
(§8) The Wadley approach may be used to estimate the type of interaction existing between the fungal compounds, regardless of their concentration. Its reliability is not dependent on the percentage inhibition. The type of interaction between two compounds is given by the level of interaction (LI) which corresponds to the ratio between the expected effective concentration (EC50exp) and that observed (EC50obs) of the mixture. The nature of the interaction obtained by the Wadley formula is presented in Table 1 (see U. Gisi, Synergistic interaction in fungicide mixtures, 1996. Phytopathology 86, 1273-1279) below.
(§9) The experimental conditions are the same as previously described.

Experiment [2] has as its system Candida albicans strains IP 48.72 (ATCC 10231). The experiment is described as above. Particulars: second study. The class given is cell-based. As to the method: as §1, §2, §3, §4, §5, §6, §7, §8, §9

We go through one compound from patent publication US20060052459A1, “Antifungal medicaments comprising arylamidine derivatives” (priority 2002, published 2006).

Structures are written as SMILES.

With `CCN(C)C=Nc1cc(C)c(Oc2ccc(C#N)c(C(F)(F)F)c2)cc1C` [Compound I.2, N-ethyl-N-methyl-N′-[4-(4-cyano-3-trifluoromethylphenoxy)-2,5-dimethylphenyl]imidoformamide], the EC50 in experiment [1] (Aspergillus fumigatus, IP864.64, 48 h, strain IP 864.64, RPMI 1640 medium enriched with 2% glucose, 48 hours at 30° C., read-out: EC50) came out at 0.088 µg/mL; in experiment [2] (Candida albicans, ATCC10231, 48 h, strain IP 48.72, RPMI 1640 medium enriched with 2% glucose, 48 hours at 30° C., read-out: EC50), 0.205 µg/mL. Moreover, in experiment [1] (enriched medium), the “efficacy in vitro compared with compounds I.1 and II.2” value is “twice higher”. In addition, the “efficacy in vitro compared with compounds I.1 and II.1” value in experiment [2] (enriched medium) is “better efficacy”.
